{
  "source": "ChEMBL document CHEMBL5465560",
  "about": "“Selectivity Literature for EUbOPEN Chemogenomic Library” (2024)",
  "key": {"[1]": {"molecular_target": "Cyclin-dependent kinase 2 (Homo sapiens, UniProt P24941)", "assay": "Selectivity interaction (KinomeScan (DiscoverX)) EUB0000595a CDK2", "details": "at 10 µM"}, "[2]": {"molecular_target": "Mitogen-activated protein kinase kinase kinase 20 (Homo sapiens) (UniProt Q9NYL2)", "sequence (Q9NYL2 2-800 limits assumed)": "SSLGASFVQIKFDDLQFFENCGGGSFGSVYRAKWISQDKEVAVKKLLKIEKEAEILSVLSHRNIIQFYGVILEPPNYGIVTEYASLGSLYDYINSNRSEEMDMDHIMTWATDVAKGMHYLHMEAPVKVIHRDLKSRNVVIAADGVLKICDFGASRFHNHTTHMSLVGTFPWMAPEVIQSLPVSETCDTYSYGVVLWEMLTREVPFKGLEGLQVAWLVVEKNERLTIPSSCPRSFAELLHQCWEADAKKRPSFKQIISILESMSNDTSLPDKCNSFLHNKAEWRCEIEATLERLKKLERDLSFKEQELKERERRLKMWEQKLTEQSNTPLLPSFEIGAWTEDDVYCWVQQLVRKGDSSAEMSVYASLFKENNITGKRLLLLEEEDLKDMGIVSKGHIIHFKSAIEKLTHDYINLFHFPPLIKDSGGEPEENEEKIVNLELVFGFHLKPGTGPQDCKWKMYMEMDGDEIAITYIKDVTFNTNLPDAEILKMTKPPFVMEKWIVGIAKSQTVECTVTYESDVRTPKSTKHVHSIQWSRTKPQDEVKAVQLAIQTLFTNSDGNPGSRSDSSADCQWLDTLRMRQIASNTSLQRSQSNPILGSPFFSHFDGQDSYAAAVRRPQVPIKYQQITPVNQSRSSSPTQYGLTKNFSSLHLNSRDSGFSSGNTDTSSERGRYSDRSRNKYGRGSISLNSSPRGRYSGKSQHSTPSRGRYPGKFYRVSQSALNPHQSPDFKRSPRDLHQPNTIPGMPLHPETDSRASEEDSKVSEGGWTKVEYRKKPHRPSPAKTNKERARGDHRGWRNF", "assay": "Selectivity interaction (KinomeScan (DiscoverX)) EUB0001079a MAP3K20", "details": "at 1 µM"}, "[3]": {"molecular_target": "Tyrosine-protein kinase BTK (Homo sapiens, UniProt Q06187)", "sequence (Q06187 whole entry)": "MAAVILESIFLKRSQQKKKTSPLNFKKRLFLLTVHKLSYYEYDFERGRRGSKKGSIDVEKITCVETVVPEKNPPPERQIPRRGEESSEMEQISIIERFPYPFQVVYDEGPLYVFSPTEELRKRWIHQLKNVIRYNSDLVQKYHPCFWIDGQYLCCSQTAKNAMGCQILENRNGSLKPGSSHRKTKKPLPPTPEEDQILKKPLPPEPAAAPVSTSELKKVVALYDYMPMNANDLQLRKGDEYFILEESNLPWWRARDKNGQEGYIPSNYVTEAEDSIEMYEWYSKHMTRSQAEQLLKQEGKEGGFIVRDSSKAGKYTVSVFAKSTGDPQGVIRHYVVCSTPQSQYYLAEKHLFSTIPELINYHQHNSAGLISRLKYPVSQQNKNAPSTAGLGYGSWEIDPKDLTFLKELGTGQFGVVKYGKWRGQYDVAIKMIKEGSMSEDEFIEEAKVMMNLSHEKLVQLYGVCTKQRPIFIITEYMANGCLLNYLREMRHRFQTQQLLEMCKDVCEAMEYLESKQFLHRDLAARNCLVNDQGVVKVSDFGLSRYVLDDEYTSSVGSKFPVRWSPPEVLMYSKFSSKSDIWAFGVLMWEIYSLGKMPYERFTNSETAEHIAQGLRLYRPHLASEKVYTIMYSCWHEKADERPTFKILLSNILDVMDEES", "assay": "Selectivity interaction (Kinase panel (Z-LYTE Assay)) EUB0001632a BTK", "details": "at 10 µM"}, "Cannabinoid receptor 1": {"molecular_target": "Cannabinoid receptor 1 (Homo sapiens, UniProt P21554)", "sequence (P21554 whole entry)": "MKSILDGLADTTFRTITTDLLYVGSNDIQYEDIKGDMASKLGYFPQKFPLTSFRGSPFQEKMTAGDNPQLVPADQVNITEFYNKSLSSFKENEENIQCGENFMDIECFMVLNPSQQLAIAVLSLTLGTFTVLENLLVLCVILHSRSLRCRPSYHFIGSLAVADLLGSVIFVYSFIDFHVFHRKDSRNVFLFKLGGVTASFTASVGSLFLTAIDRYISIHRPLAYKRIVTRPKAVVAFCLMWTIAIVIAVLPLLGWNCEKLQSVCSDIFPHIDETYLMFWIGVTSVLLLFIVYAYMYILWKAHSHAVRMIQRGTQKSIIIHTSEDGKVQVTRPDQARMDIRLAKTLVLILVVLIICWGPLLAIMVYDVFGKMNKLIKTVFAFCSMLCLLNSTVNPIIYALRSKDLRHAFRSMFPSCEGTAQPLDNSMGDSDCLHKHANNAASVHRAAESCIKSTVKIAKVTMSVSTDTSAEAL", "assay": "Selectivity interaction (Eurofins CEREP Diversity Profile (receptors and ion channels)) EUB0000279b CNR1", "details": "at 10 µM"}, "[4]": {"molecular_target": "Platelet-derived growth factor receptor beta (Homo sapiens, UniProt P09619)", "sequence (P09619 whole entry)": "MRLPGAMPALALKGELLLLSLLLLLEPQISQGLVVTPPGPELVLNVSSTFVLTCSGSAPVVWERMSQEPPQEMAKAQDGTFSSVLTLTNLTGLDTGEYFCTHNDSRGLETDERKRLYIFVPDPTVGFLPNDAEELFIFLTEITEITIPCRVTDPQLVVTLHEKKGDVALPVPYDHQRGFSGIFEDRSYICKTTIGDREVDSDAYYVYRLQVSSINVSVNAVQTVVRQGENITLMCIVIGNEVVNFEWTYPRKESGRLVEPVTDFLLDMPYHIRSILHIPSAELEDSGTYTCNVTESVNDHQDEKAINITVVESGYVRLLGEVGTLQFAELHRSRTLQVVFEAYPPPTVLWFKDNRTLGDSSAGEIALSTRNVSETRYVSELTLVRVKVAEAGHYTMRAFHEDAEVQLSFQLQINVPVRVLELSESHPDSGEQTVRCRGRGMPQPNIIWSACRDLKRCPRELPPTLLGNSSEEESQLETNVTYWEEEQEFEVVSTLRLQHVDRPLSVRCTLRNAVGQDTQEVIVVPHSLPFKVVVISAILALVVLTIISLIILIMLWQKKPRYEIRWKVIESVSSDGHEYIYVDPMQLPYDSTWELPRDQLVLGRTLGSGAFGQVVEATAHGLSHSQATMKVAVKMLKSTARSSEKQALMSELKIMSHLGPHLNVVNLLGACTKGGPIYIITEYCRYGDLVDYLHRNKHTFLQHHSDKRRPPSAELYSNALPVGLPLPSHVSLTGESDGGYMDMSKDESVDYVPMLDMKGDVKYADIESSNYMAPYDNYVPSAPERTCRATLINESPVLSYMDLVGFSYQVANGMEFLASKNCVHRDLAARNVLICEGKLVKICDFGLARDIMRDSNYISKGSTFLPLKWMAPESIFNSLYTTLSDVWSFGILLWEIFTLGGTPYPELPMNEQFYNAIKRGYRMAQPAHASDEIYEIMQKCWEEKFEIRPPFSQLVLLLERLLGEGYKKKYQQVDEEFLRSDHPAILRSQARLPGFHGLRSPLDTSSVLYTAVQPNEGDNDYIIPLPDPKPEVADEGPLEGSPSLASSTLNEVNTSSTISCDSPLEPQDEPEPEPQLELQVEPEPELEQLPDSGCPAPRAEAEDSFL", "assay": "Selectivity interaction (KinomeScan (DiscoverX)) EUB0001049a PDGFRB", "details": "at 1 µM"}, "[5]": {"molecular_target": "BMP-2-inducible protein kinase (Homo sapiens) (UniProt Q9NSY1)", "assay": "Selectivity interaction (KINOMEscan (DiscoverX)) EUB0001868a BMP2K", "details": "at 1 µM"}, "[6]": {"molecular_target": "T1, Tyrosine-protein kinase ITK/TSK (Homo sapiens) (UniProt Q08881)", "T1 sequence (whole entry)": "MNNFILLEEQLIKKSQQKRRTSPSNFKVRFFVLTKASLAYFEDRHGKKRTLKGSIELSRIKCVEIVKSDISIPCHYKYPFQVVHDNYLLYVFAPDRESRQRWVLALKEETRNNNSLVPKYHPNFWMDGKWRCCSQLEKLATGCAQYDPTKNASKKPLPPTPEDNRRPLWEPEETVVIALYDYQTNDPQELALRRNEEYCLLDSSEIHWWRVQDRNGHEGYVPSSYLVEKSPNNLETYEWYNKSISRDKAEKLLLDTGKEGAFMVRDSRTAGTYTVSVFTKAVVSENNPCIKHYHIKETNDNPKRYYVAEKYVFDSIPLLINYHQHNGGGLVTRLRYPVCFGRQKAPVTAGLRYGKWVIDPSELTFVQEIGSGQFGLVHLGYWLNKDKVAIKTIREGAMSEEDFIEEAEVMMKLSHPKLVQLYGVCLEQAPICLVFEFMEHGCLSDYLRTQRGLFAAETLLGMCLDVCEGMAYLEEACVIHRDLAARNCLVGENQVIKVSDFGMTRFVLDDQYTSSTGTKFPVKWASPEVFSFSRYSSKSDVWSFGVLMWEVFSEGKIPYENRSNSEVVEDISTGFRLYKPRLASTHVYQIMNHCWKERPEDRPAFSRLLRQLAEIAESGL", "assay": "Selectivity interaction (ProQinase) EUB0000171b ITK"}, "[7]": {"molecular_target": "5-hydroxytryptamine receptor 1B (Homo sapiens) (UniProt P28222)", "sequence (P28222 whole entry)": "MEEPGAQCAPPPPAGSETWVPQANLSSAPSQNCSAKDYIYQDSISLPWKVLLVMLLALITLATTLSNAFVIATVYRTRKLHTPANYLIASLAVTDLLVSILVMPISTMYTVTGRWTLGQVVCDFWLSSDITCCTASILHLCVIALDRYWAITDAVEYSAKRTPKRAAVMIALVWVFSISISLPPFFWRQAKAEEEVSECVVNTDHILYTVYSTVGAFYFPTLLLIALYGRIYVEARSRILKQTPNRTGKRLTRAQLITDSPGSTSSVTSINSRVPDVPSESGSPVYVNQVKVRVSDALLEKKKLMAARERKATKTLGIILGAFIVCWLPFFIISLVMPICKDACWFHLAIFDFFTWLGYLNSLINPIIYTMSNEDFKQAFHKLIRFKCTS", "assay": "Selectivity interaction (Panel of kinases, GPCRs, ion channels and transporters (enzymatic assay)) EUB0000223bCl HTR1B"}, "[8]": {"molecular_target": "Serine/threonine-protein kinase SIK2 (Homo sapiens) (UniProt Q9H0K1)", "sequence (Q9H0K1 whole entry, looked up)": "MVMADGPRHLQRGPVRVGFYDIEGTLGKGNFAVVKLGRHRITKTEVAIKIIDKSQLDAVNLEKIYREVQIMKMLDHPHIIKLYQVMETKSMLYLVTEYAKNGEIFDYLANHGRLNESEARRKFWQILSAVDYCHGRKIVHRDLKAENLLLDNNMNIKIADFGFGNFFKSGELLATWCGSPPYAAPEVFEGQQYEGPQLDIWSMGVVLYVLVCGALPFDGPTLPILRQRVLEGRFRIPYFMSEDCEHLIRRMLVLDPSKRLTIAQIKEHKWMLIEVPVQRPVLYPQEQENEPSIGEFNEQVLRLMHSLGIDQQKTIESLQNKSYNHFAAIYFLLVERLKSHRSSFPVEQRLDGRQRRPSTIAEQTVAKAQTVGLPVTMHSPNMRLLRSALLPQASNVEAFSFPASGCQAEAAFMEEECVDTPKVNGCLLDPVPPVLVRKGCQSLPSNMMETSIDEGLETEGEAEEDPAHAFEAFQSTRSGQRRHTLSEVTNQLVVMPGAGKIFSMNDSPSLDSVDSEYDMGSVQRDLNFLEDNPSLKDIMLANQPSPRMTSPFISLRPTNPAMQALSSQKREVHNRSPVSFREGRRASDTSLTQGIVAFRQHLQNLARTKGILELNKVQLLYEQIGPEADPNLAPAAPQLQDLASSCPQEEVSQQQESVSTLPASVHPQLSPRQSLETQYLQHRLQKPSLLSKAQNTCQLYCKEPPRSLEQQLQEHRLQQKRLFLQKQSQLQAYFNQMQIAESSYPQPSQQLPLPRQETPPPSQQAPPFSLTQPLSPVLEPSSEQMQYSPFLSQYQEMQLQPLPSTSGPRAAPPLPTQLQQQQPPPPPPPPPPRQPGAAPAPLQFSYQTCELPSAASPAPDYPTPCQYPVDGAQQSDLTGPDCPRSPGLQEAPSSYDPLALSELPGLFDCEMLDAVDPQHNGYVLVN", "assay": "Selectivity interaction (Kinase panel (Carna Biosciences)) EUB0001542aTs SIK2", "details": "at 1 µM"}, "[9]": {"molecular_target": "Mitogen-activated protein kinase 9 (Homo sapiens, UniProt P45984)", "sequence (P45984 whole entry, looked up)": "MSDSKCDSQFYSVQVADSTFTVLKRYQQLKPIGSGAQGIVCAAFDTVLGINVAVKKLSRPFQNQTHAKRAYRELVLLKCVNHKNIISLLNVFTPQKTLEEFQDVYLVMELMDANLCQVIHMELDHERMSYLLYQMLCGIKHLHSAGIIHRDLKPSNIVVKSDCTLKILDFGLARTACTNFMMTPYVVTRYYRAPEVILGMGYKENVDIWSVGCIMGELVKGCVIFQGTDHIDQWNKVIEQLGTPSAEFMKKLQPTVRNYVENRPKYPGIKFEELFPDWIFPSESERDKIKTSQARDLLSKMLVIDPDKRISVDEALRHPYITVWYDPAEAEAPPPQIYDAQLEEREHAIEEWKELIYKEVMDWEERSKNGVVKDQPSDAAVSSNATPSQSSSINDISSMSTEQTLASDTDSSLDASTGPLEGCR", "assay": "Selectivity interaction (KinomeScan (DiscoverX)) EUB0000607a MAPK9", "details": "at 10 µM"}, "[10]": {"molecular_target": "Serine/threonine-protein kinase 32B (Homo sapiens) (UniProt Q9NY57)", "assay": "Selectivity interaction (KinomeScan (DiscoverX)) EUB0000607a STK32B", "details": "at 10 µM"}, "[11]": {"molecular_target": "T2, Sphingosine kinase 2 (Homo sapiens) (UniProt Q9NRA0)", "T2 sequence (whole entry)": "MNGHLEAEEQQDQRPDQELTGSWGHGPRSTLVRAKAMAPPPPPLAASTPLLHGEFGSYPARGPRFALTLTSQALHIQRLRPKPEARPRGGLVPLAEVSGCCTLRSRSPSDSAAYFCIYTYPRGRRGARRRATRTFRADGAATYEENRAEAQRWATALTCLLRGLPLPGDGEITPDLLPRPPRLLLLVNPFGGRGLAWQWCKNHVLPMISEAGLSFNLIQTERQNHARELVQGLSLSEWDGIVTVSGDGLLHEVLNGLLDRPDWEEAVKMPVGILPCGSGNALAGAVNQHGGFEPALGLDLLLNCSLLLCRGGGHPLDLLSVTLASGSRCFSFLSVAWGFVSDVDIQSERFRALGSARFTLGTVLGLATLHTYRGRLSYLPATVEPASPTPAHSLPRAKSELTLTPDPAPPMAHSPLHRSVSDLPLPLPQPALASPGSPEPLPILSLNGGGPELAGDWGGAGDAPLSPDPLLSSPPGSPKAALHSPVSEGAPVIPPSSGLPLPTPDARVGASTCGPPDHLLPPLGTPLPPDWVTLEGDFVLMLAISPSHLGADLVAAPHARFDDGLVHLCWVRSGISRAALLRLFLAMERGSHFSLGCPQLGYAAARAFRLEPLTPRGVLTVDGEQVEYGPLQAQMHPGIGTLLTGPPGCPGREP", "assay": "Selectivity interaction (Kinase panel (Invitrogen)) EUB0000639a SPHK2", "details": "at 200 nM"}, "[12]": {"molecular_target": "Dual specificity protein kinase CLK2 (Homo sapiens, UniProt P49760)", "assay": "Selectivity interaction (KinomeScan (DiscoverX)) EUB0000655a CLK2", "details": "at 10 µM"}, "[13]": {"molecular_target": "T3, Inhibitor of nuclear factor kappa-B kinase subunit alpha (Homo sapiens) (UniProt O15111)", "T3 sequence (whole entry)": "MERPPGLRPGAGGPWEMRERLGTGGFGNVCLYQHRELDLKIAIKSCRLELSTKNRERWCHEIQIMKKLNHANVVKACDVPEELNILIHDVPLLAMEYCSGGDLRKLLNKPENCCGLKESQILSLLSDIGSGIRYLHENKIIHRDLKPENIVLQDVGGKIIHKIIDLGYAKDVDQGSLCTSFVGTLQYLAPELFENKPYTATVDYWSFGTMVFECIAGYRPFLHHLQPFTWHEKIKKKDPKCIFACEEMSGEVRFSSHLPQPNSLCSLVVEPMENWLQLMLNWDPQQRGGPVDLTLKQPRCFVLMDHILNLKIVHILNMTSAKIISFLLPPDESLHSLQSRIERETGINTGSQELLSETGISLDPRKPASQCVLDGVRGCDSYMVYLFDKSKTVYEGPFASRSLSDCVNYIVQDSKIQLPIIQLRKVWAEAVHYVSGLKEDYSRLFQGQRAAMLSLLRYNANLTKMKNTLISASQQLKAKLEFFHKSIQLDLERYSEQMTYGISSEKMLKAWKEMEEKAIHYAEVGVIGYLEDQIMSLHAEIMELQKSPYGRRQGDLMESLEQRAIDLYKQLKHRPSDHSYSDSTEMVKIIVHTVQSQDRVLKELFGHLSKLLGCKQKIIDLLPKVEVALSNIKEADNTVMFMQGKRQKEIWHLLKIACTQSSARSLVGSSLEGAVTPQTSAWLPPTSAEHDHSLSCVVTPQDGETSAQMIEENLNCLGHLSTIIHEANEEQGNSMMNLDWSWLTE", "assay": "Selectivity interaction (Ambit KINOMEscan and KiNATiv profiling in Jurkat cells) EUB0000090b CHUK", "format": "cell-based", "details": "at 1 µM"}},
  "data": [
    {"smiles": "COCC(=O)NC/C=C/c1ccc2ncnc(Nc3ccc(Oc4ccc(C)nc4)c(C)c3)c2c1", "note": "[CP-724714]", "values": [
      {"measurement": "% of control", "setting": "[1]", "value": 92, "unit": "%"}
    ]},
    {"smiles": "Nc1cnc(N2CCc3cc(S(=O)(=O)Nc4c(F)cc(Cl)cc4F)cc(N4CCCC4=O)c32)nc1", "note": "[TP-020n]", "values": [
      {"measurement": "% of control", "setting": "[2]", "value": 95, "unit": "%"}
    ]},
    {"smiles": "Cn1cc(-n2cnc3c(NCc4nc5cc(Cl)c(Cl)cc5[nH]4)nc(N4CCOCC4)nc32)cn1", "values": [
      {"measurement": "% of control", "setting": "[3]", "value": -7.51, "unit": "%"}
    ]},
    {"smiles": "CC(=O)c1cc(-c2ccccc2OCC2CC2)c2ncccn12", "values": [
      {"measurement": "% of control", "setting": "Cannabinoid receptor 1", "value": 116, "unit": "%"}
    ]},
    {"smiles": "COc1cc(Nc2nc(C)cc(-c3cnn4nc(OC)ccc34)n2)cc(C(F)(F)F)c1", "values": [
      {"measurement": "% of control", "setting": "[4]", "value": 100, "unit": "%"}
    ]},
    {"smiles": "Cc1cc(-c2ccnc(Nc3cnn(C)c3)n2)ccc1CNC(=O)N1CC(OC(C)C)C1", "values": [
      {"measurement": "% of control", "setting": "[5]", "value": 18, "unit": "%"}
    ]},
    {"smiles": "C=CC(=O)Nc1cccc(C(=O)Nc2ccc(Nc3cc(-c4[nH]c(SC)nc4C)ccn3)cc2)c1", "values": [
      {"measurement": "% of control", "setting": "[6]; at 1 µM", "value": 95, "unit": "%"},
      {"measurement": "% of control", "setting": "[6]; at 5 µM", "value": 81, "unit": "%"}
    ]},
    {"smiles": "COc1cc(C(=O)N2CC[C@@H](O)[C@@H](N)C2)cc2nc(-c3cc4ccccc4n3CC3CC3)n(C)c12", "values": [
      {"measurement": "pXC50", "setting": "[7]", "value": "< 4.5", "unit": "M"}
    ]},
    {"smiles": "Cn1cc(Nc2nccc(N3CC4CCC(C3)N4C(=O)[C@@H]3CC3(F)F)n2)cn1", "values": [
      {"measurement": "% of inhibition", "setting": "[8]", "value": 91, "unit": "%"}
    ]},
    {"smiles": "CNC(=O)Nc1ccc(-c2nc(N3CC4CCC(C3)O4)c3cnn(C4CCC5(CC4)OCCO5)c3n2)cc1", "values": [
      {"measurement": "% of control", "setting": "[9]", "value": 85, "unit": "%"},
      {"measurement": "% of control", "setting": "[10]", "value": 86, "unit": "%"}
    ]},
    {"smiles": "CC[C@@H]1[C@H](F)C(=O)N[C@@H]1COc1nccc2cc(C(N)=O)c(OC)cc12", "note": "[ZIMLOVISERTIB]", "values": [
      {"measurement": "% of inhibition", "setting": "[11]", "value": -0.837, "unit": "%"}
    ]},
    {"smiles": "CN(C)CCOc1ccc(-c2nc(-c3ccncc3)c(-c3ccc4c(c3)CC/C4=N\\O)[nH]2)cc1", "values": [
      {"measurement": "% of control", "setting": "[12]", "value": 52, "unit": "%"}
    ]},
    {"smiles": "CN(C)C/C=C/C(=O)Nc1ccc(C(=O)N2CCCC(Nc3ncc(Cl)c(-c4c[nH]c5ccccc45)n3)C2)cc1", "note": "(stereo not given)", "values": [
      {"measurement": "% of control", "setting": "[13]", "value": 100, "unit": "%"}
    ]}
  ]
}
